Earlier results, collected in publication PMC9705454 (Clinical Drug Investigation, 2022).

Key:
[1] = metabolite slowly released from the subcutaneous depot

| Substance | half-life in circulation | share of plasma exposure accounted for by the main active metabolite [1] [%] |
| --- | --- | --- |
| teduglutide | approximately 2 h | – |
| insulin glargine | – | > 90 |
